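48-hour exposure; five concentrations; linearly interpolated endpoints. GI50: concentration for 50% inhibition of growth.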 Calls of active or inactive are those of the source. Cut-off read from the data, not from the text of the source: active = GI50 up to about 1.1 µM and inactive = higher.
Columns and labels:
Test in all cases: NCI-60 cell line screen, 48 h
[1] = tested on: SK-MEL-5
[2] = tested on: DU-145
[3] = tested on: OVCAR-5
[4] = tested on: ACHN
[5] = tested on: COLO 205
[6] = tested on: UACC-62
[7] = tested on: EKVX
[8] = tested on: PC-3
[9] = tested on: NCI-H226
[10] = tested on: K562
[11] = tested on: NCI-H460
[12] = tested on: A549
[13] = tested on: HCT-15
[14] = tested on: MDA-MB-435
[15] = tested on: RPMI-8226
[16] = tested on: SK-MEL-2
[17] = tested on: IGROV-1
[18] = tested on: HL-60
[19] = tested on: SNB-75
[20] = tested on: RXF 393
[21] = tested on: SR
[22] = tested on: NCI/ADR-RES
[23] = tested on: UACC-257
[24] = tested on: SW-620
[25] = tested on: TK-10
[26] = tested on: CAKI-1
[27] = tested on: SN12C
[28] = tested on: CCRF-CEM
[29] = tested on: LOX IMVI
[30] = tested on: SNB-19
[31] = tested on: Malme-3M
[32] = tested on: Hs-578T
[33] = tested on: U-251
[34] = tested on: HOP-62
[35] = tested on: HCT-116
[36] = tested on: 786-0
[37] = tested on: OVCAR-8
[38] = tested on: BT-549
[39] = tested on: SK-MEL-28
[40] = tested on: MDA-MB-231
[41] = tested on: MCF7
[42] = tested on: MOLT-4
[43] = tested on: T47D
[44] = tested on: OVCAR-3
[45] = tested on: SF-268
[46] = tested on: SF-295
[47] = tested on: NCI-H522
[48] = tested on: HCC 2998
[49] = tested on: MDA-N
[50] = tested on: KM12
[51] = tested on: M14
[52] = tested on: NCI-H23
[53] = tested on: OVCAR-4
[54] = tested on: A498
[55] = tested on: UO-31
[56] = tested on: SF-539
[57] = tested on: HOP-92
[58] = tested on: HT-29
[59] = tested on: SK-OV-3

Measured: GI50

CCOC(=O)c1cc2c3ccn(Cc4ccccc4)c3c3c(C)noc3c2[nH]1
inactive: [1] > 100 µM | [2] > 100 µM | [3] > 100 µM | [4] > 100 µM | [5] > 100 µM | [6] > 100 µM | [7] > 100 µM | [8] > 100 µM | [9] > 100 µM | [10] > 100 µM | [11] > 100 µM | [12] > 100 µM | [14] > 100 µM | [15] > 100 µM | [16] > 100 µM | [17] > 100 µM | [18] > 100 µM | [19] 74.6 µM | [20] > 100 µM | [21] > 100 µM | [22] > 100 µM | [23] > 100 µM | [24] > 100 µM | [25] > 100 µM | [26] > 100 µM | [27] > 100 µM | [28] > 100 µM | [29] > 100 µM | [30] > 100 µM | [31] > 100 µM | [32] > 100 µM | [33] > 100 µM | [34] > 100 µM | [35] > 100 µM | [36] > 100 µM | [37] > 100 µM | [38] > 100 µM | [39] > 100 µM | [40] > 100 µM | [41] > 100 µM | [42] > 100 µM | [43] > 100 µM | [44] > 100 µM | [45] > 100 µM | [46] > 100 µM | [47] > 100 µM | [48] > 100 µM | [49] > 100 µM | [50] > 100 µM | [51] > 100 µM | [52] > 100 µM | [53] > 100 µM | [54] > 100 µM | [55] > 100 µM
> 100 µM: [13]

CN(C)CCNCCN
inactive: [1] > 100 µM | [2] > 100 µM | [3] > 100 µM | [4] > 100 µM | [5] > 100 µM | [6] > 100 µM | [7] > 100 µM | [8] > 100 µM | [9] > 100 µM | [10] > 100 µM | [11] > 100 µM | [12] > 100 µM | [14] > 100 µM | [15] > 100 µM | [16] > 100 µM | [17] > 100 µM | [18] > 100 µM | [56] > 100 µM | [57] > 100 µM | [21] > 100 µM | [22] > 100 µM | [23] > 100 µM | [24] > 100 µM | [25] > 100 µM | [26] > 100 µM | [27] > 100 µM | [58] > 100 µM | [29] > 100 µM | [30] > 100 µM | [31] > 100 µM | [32] > 100 µM | [33] > 100 µM | [34] > 100 µM | [35] > 100 µM | [59] > 100 µM | [36] > 100 µM | [37] > 100 µM | [38] > 100 µM | [39] > 100 µM | [40] > 100 µM | [41] > 100 µM | [42] > 100 µM | [43] > 100 µM | [44] > 100 µM | [45] > 100 µM | [46] > 100 µM | [47] > 100 µM | [49] > 100 µM | [50] > 100 µM | [51] > 100 µM | [52] > 100 µM | [53] > 100 µM | [54] > 100 µM | [55] > 100 µM
> 100 µM: [13]

CN1/C(=C\N=O)C(C)(C)N(O)C1(C)C
> 100 µM: [13]
inactive: [1] > 100 µM | [2] > 100 µM | [3] > 100 µM | [4] > 100 µM | [5] > 100 µM | [6] > 100 µM | [7] > 100 µM | [8] > 100 µM | [9] > 100 µM | [10] > 100 µM | [11] > 100 µM | [12] > 100 µM | [14] > 100 µM | [15] > 100 µM | [16] > 100 µM | [17] > 100 µM | [18] > 100 µM | [19] > 100 µM | [56] > 100 µM | [57] > 100 µM | [21] > 100 µM | [22] > 100 µM | [23] > 100 µM | [24] > 100 µM | [25] > 100 µM | [26] > 100 µM | [27] > 100 µM | [28] > 100 µM | [58] > 100 µM | [29] > 100 µM | [30] > 100 µM | [31] > 100 µM | [32] > 100 µM | [33] > 100 µM | [34] > 100 µM | [35] > 100 µM | [59] > 100 µM | [36] > 100 µM | [37] > 100 µM | [38] > 100 µM | [39] > 100 µM | [40] > 100 µM | [41] > 100 µM | [42] > 100 µM | [43] > 100 µM | [44] > 100 µM | [45] > 100 µM | [46] > 100 µM | [47] > 100 µM | [48] > 100 µM | [49] > 100 µM | [50] > 100 µM | [51] > 100 µM | [52] > 100 µM | [53] > 100 µM | [55] > 100 µM

— ChEMBL document CHEMBL1201862, “PubChem BioAssay data set” (2004)
